Experimental data: article PMC5673865, “Characterization of a beta-glucosidase from Bacillus licheniformis and its effect on bioflocculant degradation” (AMB Express, 2017)

Columns and labels:
[1] = molecular target: T1, Bgl.bli1 (Bacillus licheniformis, UniProt Q65D83); test: pNPG hydrolysis; assay type: biochemical; conditions: standard assay, no glucose added
T1 construct: gene BL01920; cloning primers encode start MARQTW and end TEEFRYK
T1 sequence (Q65D83 1-478): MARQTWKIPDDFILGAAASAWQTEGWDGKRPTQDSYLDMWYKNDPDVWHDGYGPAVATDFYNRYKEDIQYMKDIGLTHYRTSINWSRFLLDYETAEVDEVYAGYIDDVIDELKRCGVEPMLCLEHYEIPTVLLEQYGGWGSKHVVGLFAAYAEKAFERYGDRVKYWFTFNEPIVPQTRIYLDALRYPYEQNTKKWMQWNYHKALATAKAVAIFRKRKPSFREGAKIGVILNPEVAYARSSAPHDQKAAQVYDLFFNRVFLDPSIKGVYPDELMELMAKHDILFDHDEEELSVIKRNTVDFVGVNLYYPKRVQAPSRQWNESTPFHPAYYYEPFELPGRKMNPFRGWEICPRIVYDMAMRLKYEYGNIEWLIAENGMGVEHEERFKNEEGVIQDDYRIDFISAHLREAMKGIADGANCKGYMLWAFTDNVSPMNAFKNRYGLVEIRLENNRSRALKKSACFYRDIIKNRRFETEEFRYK

[2] = molecular target: T1, Bgl.bli1; test: pNPG hydrolysis with added glucose; assay type: biochemical; conditions: substrate pNPG, called competitive by the authors
Excerpt: pNPG hydrolysis with added glucose on Bgl.bli1

Relative activity (%) at 10% (w/w) glucose [2] | SMILES | pNPG hydrolysis [1]
 | O=[N+]([O-])c1ccc(O[C@@H]2O[C@H](CO)[C@@H](O)[C@H](O)[C@H]2O)cc1 [p-nitrophenyl-β-D-glucopyranoside] | Bgl.bli1 activity was determined by measuring the hydrolysis of p-nitrophenyl-β-D-glucopyranoside (pNPG)
49.26% | OC[C@H]1OC(O)[C@H](O)[C@@H](O)[C@@H]1O (some centres unmarked) [glucose] | 
